Paper PMC9788418, “Design, Synthesis and Biological Evaluation of Syn and Anti-like Double Warhead Quinolinones Bearing Dihydroxy Naphthalene Moiety as Epidermal Growth Factor Receptor Inhibitors with Potential Apoptotic Antiproliferative Action” (Molecules, 2022)
Where “and” joins values, the source holds several entries; their conditions need not be identical. Identical values can stand only once.

Assays:
Assay type in all cases: cell-based, human
[1] = system: Bax; test: Bax activation assay; conditions: for Bax Conc: A-549; for Bax Fold Change: A-549, vs control untreated cells
Procedure: 8, and lysed with Cell Extraction Buffer. This lysate was diluted in Standard Diluent Buffer over the range of the assay and measured for human active caspase-8 content. (cells are Plated in a density of 1.2 – 1.8 × 10,000 cells/well in a volume of 100µl complete growth medium + 100 ul of the tested compound per well in a 96-well plate for 24 hours before the enzyme assay for […].). […]
4.2.4. Bax activation assay
Bring all reagents, except the human Bax-α Standard, to room temperature for at least 30 minutes prior to opening. The human Bax-α Standard solution should not be left at room temperature for more than 10 minutes. All standards, controls and samples should be run in duplicate. Refer to the Assay Layout Sheet to determine the number of wells to be used and put any remaining wells with the desiccant back into the pouch and seal the ziploc. Store unused wells at 4 °C. Pipet 100 μL of Assay Buffer into the S0 (0 pg/mL standard) wells. Pipet 100 μL of Standards #1 through #6 into the appropriate wells. Pipet 100 μL of the Samples into the appropriate wells. Tap the plate gently to mix the contents. Seal the plate and incubate at room temperature on a plate shaker for 1 hour at ~500 rpm. Empty the contents of the wells and wash by adding 400 μL of wash solution to every well.
Repeat the wash 4 more times for a total of 5 washes. After the final wash, empty or aspirate the wells and firmly tap the plate on a lint free paper towel to remove any remaining wash buffer. Pipet 100 μL of yellow Antibody into each well, except the Blank. Seal the plate and incubate at room temperature on a plate shaker for 1 hour at ~500 […]
wells and firmly tap the plate on a lint free paper towel to remove any remaining wash buffer. Add […]
100 μL of blue Conjugate to each well, except the Blank. Seal the plate and incubate at room temperature on a plate shaker for 30 minutes at ~500 rpm. Empty the contents of the wells and wash by adding 400 μL of wash solution to every well. Repeat the wash 4 more times for a total of 5 washes. After the final wash, empty or aspirate the wells and firmly tap the plate on a lint free paper towel to remove any remaining wash buffer. Pipet 100 μL of Substrate Solution into each well.
Incubate for 30 minutes at room temperature on a plate shaker at ~500 rpm. Pipet 100 μL Stop Solution to each well. Blank the plate reader against the Blank wells, read the optical density at 450 nm. Calculate the average net Optical Density (OD) bound for each standard and sample by subtracting the average Blank OD from the average OD for each standard and sample. Using linear graph paper, plot the Average Net OD for each standard versus Bax concentration in each standard.
Approximate a straight line through the points. The concentration of Bax in the unknowns can be determined by interpolation. […]

[2] = system: caspase-9; test: Caspase-9 level assay; conditions: for Caspase-9 Fold Change: vs control cells
Procedure: The impact of compounds 4a and 4b on caspase-8 and caspase-9 was also assessed to clarify how compounds 4a and 4b induce apoptosis by activating the intrinsic or extrinsic route.

[3] = system: MCF-7 (breast cancer cell line); test: Antiproliferative assay; conditions: Homo sapiens, MCF7; read-out: Antiproliferative Activity IC50 ± SEM, MCF-7
Procedure: (§1) 4.2.1.2. Assay for antiproliferative effect
(§2) To explore the antiproliferative potential of compounds MTT assay was performed according to previously reported procedure using different cell lines to explore the antiproliferative potential of compounds propidium iodide fluorescence assay was performed using different cell lines. To calculate the total nuclear DNA, a fluorescent dye (propidium iodide, PI) is used which can attach to the DNA, thus offering a quick and precise technique. PI cannot pass through the cell membrane and its signal intensity can be considered as directly proportional to quantity of cellular DNA. Cells whose cell membranes are damaged or have changed permeability are counted as dead ones. The assay was performed by seeding the cells of different cell lines at a density of 3000-7500 cells/well (in 200µl […]
(§3) atmospheric conditions. The medium was removed; the compounds were added to the plates at 10 µM concentrations (in 0.1% DMSO) in triplicates, followed by incubation for 48 h. DMSO (0.1%) was used as control. After incubation, medium was removed followed by the addition of PI (25 µl, 50µg/mL in water/medium) to each well of the plates. At -80 °C, the plates were allowed to freeze for 24 h, followed by thawing at 25 °C. A fluorometer (Polar-Star BMG Tech) was used to record the readings at excitation and emission wavelengths of 530 and 620 nm for each well. The percentage cytotoxicity of compounds was calculated using the following formula:
(§4) Where ATC= Absorbance of treated cells and AC= Absorbance of control. […]
(§5) positive control in the assay.

[4] = system: HT-29 (colon cancer cell line); test: Antiproliferative assay; conditions: Homo sapiens, read-out: Antiproliferative Activity IC50 ± SEM, HT-29
Procedure: as §1, §2, §3, §4, §5

[5] = system: A-549 (epithelial cancer cell line); test: Antiproliferative assay; conditions: Homo sapiens, A549; read-out: Antiproliferative Activity IC50 ± SEM, A-549
Procedure: as §1, §2, §3, §4, §5

[6] = system: caspase-8; test: Caspase-8 activation assay; conditions: for Caspase-8 Fold Change: vs control cells
[7] = system: Cytochrome C; test: Cytochrome C assay; conditions: for Cytochrome C Conc: A-549; for Cytochrome C Fold Change: A-549, vs control
Procedure: The concentration of Cytochrome c in a cell is crucial for activating caspases and starting the intrinsic apoptosis process. […]
plate cover and incubate at room temperature, on a microplate shaker at 100 rpm if available, for 1 hour. Remove plate cover and empty the wells. Wash microwell strips 3 times as described in step 2.
Proceed to the next step. Pipette 100 μl of mixed TMB Substrate Solution to all wells, including the […]
available on a rotator set at 100 rpm. Avoid direct exposure to intense light. The point, at which the substrate reaction is stopped, is often determined by the ELISA reader. Many ELISA readers record absorbance only up to 2.0 O.D. Therefore, the color development within individual microwells must be watched by the person running the assay and the substrate reaction stopped before positive wells are no longer properly detectable. Stop the enzyme reaction by quickly pipetting 100 μL of Stop Solution into each well, including the blank wells. It is important that the Stop Solution is spread quickly and uniformly throughout the microwells to completely inactivate the enzyme. Results must be read immediately after the Stop Solution is added or within one hour if the microwell strips are stored at 2 - 8°C in the dark. Read absorbance of each microwell on a spectrophotometer using 450 nm as the primary wave length.
4.2.6. Cytochrome C assay […]
cytochrome C, and lysed with Cell Extraction Buffer. This lysate was diluted in Standard Diluent Buffer over the range of the assay and measured for cytochrome C content. (Cells are Plated in cells/well in a volume of 100µl complete growth medium + 100 µl of the tested compound + 50 µl of 1X biotin conjugated antibody+ 100 µl of 1X streptavidin-HRP+ 100 µL TMB substrate soln of per well in a 96-well plate for 24 hours before assay).
4.3. Statistical analysis
Computerized Prism 5 program was used to statistically analyzed data using one-way ANOVA test followed by Tukey’s as post ANOVA for multiple comparison at P ≤.05. Data were presented as […]

| IC50 [3] [nM] | IC50 [4] [nM] | IC50 [5] [nM] | SMILES | Bax Conc [1] | Bax Fold Change [1] | Caspase-9 Conc [2] [ng/mL] | Caspase-9 Fold Change [2] | Caspase-8 Conc [6] [ng/mL] | Caspase-8 Fold Change [6] | Cytochrome C Conc [7] [ng/mL] | Cytochrome C Fold Change [7] |
| --- | --- | --- | --- | --- | --- | --- | --- | --- | --- | --- | --- |
| 33 ± 3 | 36 ± 3 | 31 ± 3 | O=c1cc(-n2cc(COc3cccc4cccc(OCc5cn(-c6cc(=O)[nH]c7ccccc67)nn5)c34)nn2)c2ccccc2[nH]1 [Compound 4a, 4,4′-(((naphthalene-1,8-diylbis(oxy))bis(methylene))bis(1H-1,2,3-triazole-4,1-diyl))-bis-(quinolin-2(1H)-one)] | 298 pg/mL and 298.60 pg/mL | 36 | 17.80 | 19 and 18.75 | 1.20 | 6 | 0.80 | 16 |
| 43 ± 4 | 48 ± 4 | 41 ± 4 | Cc1ccc2[nH]c(=O)cc(-n3cc(COc4cccc5cccc(OCc6cn(-c7cc(=O)[nH]c8ccc(C)cc78)nn6)c45)nn3)c2c1 [Compound 4b, 4,4′-(((naphthalene-1,8-diylbis(oxy))bis(methylene))bis(1H-1,2,3-triazole-4,1-diyl))-bis(6-methylquinolin-2(1H)-one)] | 284 pg/mL and 284.50 pg/mL | 34 | 16.60 | 18 and 17.50 | 0.80 | 4 | 0.70 | 14 |
